This is an account of results in BindingDB's records for doi:10.1016/j.bmc.2020.115716 (Chemical Diversity Research Institute, 2020).

Test [1] can be described thus: Inhibition of HCV genotype 2a NS5A infected in Huh7 cells assessed as reduction in viral replication incubated 3 days and measured by bright Glo-luciferase reporter gene assay. (Reporter assays use an easily measured gene product as a stand-in for the process of interest.)
The nature of test [2]: Inhibition of HCV genotype 1b NS5A infected in Huh7 cells assessed as reduction in viral replication incubated 3 days and measured by Bright-Glo luciferase assay.
Test [3] in a line: Inhibition of HCV genotype 5a NS5A infected in Huh7 cells assessed as reduction in viral replication incubated 3 days and measured by bright Glo-luciferase reporter gene assay.
Test [4] in a line: Inhibition of HCV genotype 4a NS5A infected in Huh7 cells assessed as reduction in viral replication incubated 3 days and measured by bright Glo-luciferase reporter gene assay.
Test [5] is described as follows: Inhibition of HCV genotype 1a NS5A infected in Huh7 cells assessed as reduction in viral replication incubated 3 days and measured by bright Glo-luciferase reporter gene assay.
Test [6] in a line: Inhibition of HCV genotype 3a NS5A infected in Huh7 cells assessed as reduction in viral replication incubated 3 days and measured by bright Glo-luciferase reporter gene assay.

The IC50 is the midpoint of a concentration-inhibition curve. Broadly, the EC50 is the concentration at which the effect is half-maximal.

For the compound `COC(=O)N[C@H](C(=O)N1CCC[C@H]1c1ncc(C#CC#Cc2ccc(-c3cnc([C@@H]4CCCN4C(=O)[C@@H](NC(=O)OC)C(C)C)[nH]3)cc2)[nH]1)c1ccccc1`, the IC50 in test [1] was 0.431 nM; in test [3], 6.4 nM; in test [4], 0.423 nM; in test [5], 0.758 nM; in test [6], 10.7 nM. Further, the EC50 in test [2] amounted to 0.012 nM.

For `COC(=O)N[C@H](C(=O)N1CCC[C@H]1c1ncc(C#CC#Cc2c(F)cc(-c3cnc([C@@H]4CCCN4C(=O)[C@@H](NC(=O)OC)C(C)C)[nH]3)cc2-c2ccccc2)[nH]1)C(C)C`, the IC50 in test [1] was determined as 0.015 nM; in test [3] it was 0.12 nM; in test [4] it was 0.019 nM; in test [5], 0.064 nM; in test [6] it was 0.459 nM.

As to `COC(=O)N[C@H](C(=O)N1CCC[C@H]1c1ncc(-c2ccc(C#CC#Cc3cnc([C@@H]4CCCN4C(=O)[C@H](NC(=O)OC)c4ccccc4)[nH]3)c(-c3ccccc3)c2)[nH]1)C(C)C`, in test [2], the EC50 was 0.0029 nM. Further, the figures for the IC50 in test [3], in test [5] and in test [6] were 0.026 nM, 0.045 nM and 0.034 nM, respectively.

For the compound `COC(=O)N[C@H](C(=O)N1CCC[C@H]1c1ncc(-c2ccc(C#CC#Cc3cnc([C@@H]4CCCN4C(=O)[C@H](NC(=O)OC)c4ccccc4)[nH]3)c(-c3cccc(F)c3F)c2)[nH]1)C(C)C`, the half-inhibitory concentration (IC50) in test [1] came out at 0.001 nM; in test [3], 0.019 nM; in test [5], 0.028 nM; in test [6] it was 0.016 nM.

As for `COC(=O)N[C@H](C(=O)N1CCC[C@H]1c1ncc(-c2cc(F)c(C#CC#Cc3cnc([C@@H]4CCCN4C(=O)[C@H](NC(=O)OC)c4ccccc4)[nH]3)c(-c3ccccc3)c2)[nH]1)C(C)C`, the IC50 in test [1] stood at 0.005 nM; in test [3] it was 0.026 nM; in test [4], 0.012 nM; in test [5], 0.051 nM; in test [6], 0.02 nM.

Take `COC(=O)N[C@H](C(=O)N1CCC[C@H]1c1ncc(-c2ccc(C#CC#Cc3cnc([C@@H]4CCCN4C(=O)[C@H](NC(=O)OC)c4ccccc4)[nH]3)c(-c3ccc(C(C)(C)C)cc3)c2)[nH]1)C(C)C`: the IC50 was found to be 0.693 nM in test [3], 0.01 nM in test [4], 2.3 nM in test [5] and 0.362 nM in test [6].

As to `COC(=O)N[C@H](C(=O)N1CCC[C@H]1c1ncc(-c2ccc(C#CC#Cc3cnc([C@@H]4CCCN4C(=O)[C@H](NC(=O)OC)c4ccccc4)[nH]3)c(-c3ccc(N(C)C)cc3)c2)[nH]1)C(C)C`, the IC50 in test [1] was 0.013 nM; in test [3], 0.052 nM; in test [4], 0.011 nM; in test [5] it was 0.138 nM; in test [6], 0.038 nM.

Turning to `COC(=O)N[C@H](C(=O)N1CCC[C@H]1c1ncc(-c2ccc(C#CC#Cc3cnc([C@@H]4CCCN4C(=O)[C@H](NC(=O)OC)c4ccccc4)[nH]3)c(N(C)c3ccccc3)c2)[nH]1)C(C)C`, the IC50 turned out to be 0.011 nM in test [1]; 0.027 nM in test [3]; 0.011 nM in test [4]; 0.072 nM in test [5]; 0.035 nM in test [6].

With `COC(=O)N[C@H](C(=O)N1CCC[C@H]1c1ncc(C#CC#Cc2ccc(-c3cnc([C@@H]4CCCN4C(=O)[C@H](NC(=O)OC)c4ccccc4)[nH]3)cc2)[nH]1)C(C)C`, the IC50 in test [1] was 0.007 nM; in test [3] it was 0.1 nM; in test [4], 0.012 nM; in test [5], 0.21 nM; in test [6] it was 0.629 nM. Further, the EC50 in test [2] worked out at 0.006 nM.

Turning to `COC(=O)N[C@H](C(=O)N1CCC[C@H]1c1ncc(C#CC#Cc2ccc(-c3cnc([C@@H]4CCCN4C(=O)[C@@H](NC(=O)OC)C(C)C)[nH]3)cc2-c2cccc(-c3ccccc3)c2)[nH]1)C(C)C`, the IC50 in test [1] is 0.449 nM; in test [3], 0.763 nM; in test [4], 0.019 nM; in test [5] it was 0.47 nM; in test [6], 2.79 nM.

For `COC(=O)N[C@H](C(=O)N1CCC[C@H]1c1ncc(C#CC#Cc2c(C)cc(-c3cnc([C@@H]4CCCN4C(=O)[C@@H](NC(=O)OC)C(C)C)[nH]3)cc2-c2ccccc2)[nH]1)C(C)C`, the concentration for half-maximal inhibition (IC50) in test [1] was found to be 0.008 nM; in test [3], 0.027 nM; in test [4], 0.006 nM; in test [5], 0.037 nM; in test [6] it was 0.364 nM.

With `COC(=O)N[C@H](C(=O)N1CCC[C@H]1c1ncc(-c2cc(C)c(C#CC#Cc3cnc([C@@H]4CCCN4C(=O)[C@H](NC(=O)OC)c4ccccc4)[nH]3)c(-c3ccccc3)c2)[nH]1)C(C)C`, the IC50 in test [1] stood at 0.003 nM; in test [4] it was 0.01 nM; in test [5] it was 0.124 nM; in test [6], 0.026 nM.

With `COC(=O)N[C@H](C(=O)N1CCC[C@H]1c1ncc(-c2ccc(C#CC#Cc3cnc([C@@H]4CCCN4C(=O)[C@H](NC(=O)OC)c4ccccc4)[nH]3)c(Oc3ccccc3)c2)[nH]1)C(C)C`, the IC50 in test [1] was found to be 0.013 nM; in test [3] it was 0.019 nM; in test [4], 0.008 nM; in test [5] it was 0.214 nM; in test [6], 0.04 nM.

With `COC(=O)N[C@H](C(=O)N1CCC[C@H]1c1ncc(C#CC#Cc2ccc(-c3cnc([C@@H]4CCCN4C(=O)[C@@H](NC(=O)OC)C(C)C)[nH]3)cc2-c2ccc(C(C)(C)C)cc2)[nH]1)C(C)C`, the IC50 came out at 1.68 nM in test [1]; 0.356 nM in test [3]; 0.011 nM in test [4]; 0.642 nM in test [5]; 1.29 nM in test [6].

As for `COC(=O)N[C@H](C(=O)N1CCC[C@H]1c1ncc(-c2ccc(C#CC#Cc3cnc([C@@H]4CCCN4C(=O)[C@H](NC(=O)OC)c4ccccc4)[nH]3)c(Sc3ccccc3)c2)[nH]1)C(C)C`, the IC50 is 0.014 nM in test [1]; 0.035 nM in test [3]; 0.009 nM in test [4]; 0.257 nM in test [5]; 0.091 nM in test [6].

For `COC(=O)N[C@H](C(=O)N1CCC[C@H]1c1ncc(-c2ccc(C#CC#Cc3cnc([C@@H]4CCCN4C(=O)[C@H](NC(=O)OC)c4ccccc4)[nH]3)c(-c3ccc(-c4ccccc4)cc3)c2)[nH]1)C(C)C`, the IC50 in test [3] is 0.131 nM; in test [4], 0.006 nM; in test [5], 0.418 nM; in test [6], 0.064 nM.

Take `COC(=O)N[C@H](C(=O)N1CCC[C@H]1c1ncc(C#CC#Cc2ccc(-c3cnc([C@@H]4CCCN4C(=O)[C@@H](NC(=O)OC)C(C)C)[nH]3)cc2-c2ccccc2)[nH]1)C(C)C`: the IC50 in test [1] is 0.03 nM; in test [3], 0.129 nM; in test [4] it was 0.007 nM; in test [5] it was 0.072 nM; in test [6] it was 1.31 nM. Moreover, the EC50 in test [2] was 0.002 nM.

Turning to `COC(=O)N[C@H](C(=O)N1CCC[C@H]1c1ncc(-c2ccc(C#CC#Cc3cnc([C@@H]4CCCN4C(=O)[C@@H](NC(=O)OC)C(C)C)[nH]3)cc2)[nH]1)c1ccccc1`, the IC50 in test [1] is 0.12 nM; in test [3], 0.2 nM; in test [4] it was 0.123 nM; in test [5], 1.34 nM; in test [6], 4.92 nM. Moreover, the EC50 in test [2] is 0.012 nM.

For `COC(=O)N[C@H](C(=O)N1CCC[C@H]1c1ncc(-c2ccc(C#CC#Cc3cnc([C@@H]4CCCN4C(=O)[C@H](NC(=O)OC)c4ccccc4)[nH]3)c(-c3cccc(-c4ccccc4)c3)c2)[nH]1)C(C)C`, the half-maximal inhibitory concentration (IC50) in test [1] was 0.033 nM; in test [3], 0.122 nM; in test [4], 0.011 nM; in test [5], 0.626 nM; in test [6], 0.123 nM.

With `COC(=O)N[C@H](C(=O)N1CCC[C@H]1c1ncc(-c2ccc(C#CC#Cc3cnc([C@@H]4CCCN4C(=O)[C@H](NC(=O)OC)c4ccccc4)[nH]3)c(-c3ccc(N4CCN(C)CC4)cc3)c2)[nH]1)C(C)C`, the IC50 in test [1] was 0.023 nM; in test [3], 1.4 nM; in test [4], 0.548 nM; in test [5], 0.113 nM; in test [6], 0.353 nM. Further, the EC50 in test [2] was 0.004 nM.

Regarding `COC(=O)N[C@H](C(=O)N1CCC[C@H]1c1ncc(-c2ccc(C#CC#Cc3cnc([C@@H]4CCCN4C(=O)[C@H](NC(=O)OC)c4ccccc4)[nH]3)c(N3CCN(C)CC3)c2)[nH]1)C(C)C`, the IC50 in test [1] was 0.143 nM; in test [3], 3.1 nM; in test [4], above 10 nM; in test [5], 0.473 nM; in test [6], above 10 nM. In addition, the EC50 in test [2] was found to be 0.034 nM.

Regarding `COC(=O)N[C@H](C(=O)N1CCC[C@H]1c1ncc(-c2ccc(C#CC#Cc3cnc([C@@H]4CCCN4C(=O)[C@H](NC(=O)OC)c4ccccc4)[nH]3)cc2)[nH]1)C(C)C`, the IC50 in test [1] is 0.016 nM; in test [3], 0.126 nM; in test [4] it was 0.036 nM; in test [5], 0.276 nM; in test [6], 0.329 nM. Moreover, in test [2], the EC50 amounted to 0.007 nM.

For `COC(=O)N[C@H](C(=O)N1CCC[C@H]1c1ncc(-c2ccc(C#CC#Cc3cnc([C@@H]4CCCN4C(=O)[C@H](NC(=O)OC)c4ccccc4)[nH]3)c(-c3cccc(C(C)(C)C)c3)c2)[nH]1)C(C)C`, the IC50 in test [1] was 0.104 nM; in test [3], 0.107 nM; in test [4], 0.007 nM; in test [5], 1.07 nM; in test [6], 0.093 nM.

On to `COC(=O)N[C@H](C(=O)N1CCC[C@H]1c1ncc(C#CC#Cc2ccc(-c3cnc([C@@H]4CCCN4C(=O)[C@@H](NC(=O)OC)C(C)C)[nH]3)cc2-c2ccc3ccccc3c2)[nH]1)C(C)C`, for which the IC50 in test [1] amounted to 0.028 nM; in test [3] it was 0.267 nM; in test [4] it was 0.008 nM; in test [5], 0.248 nM; in test [6], 0.864 nM.
